Data set [1] in a line: Synergistic cytotoxicity against rat CTX TNA2 cells assessed as synergistic effect index at 112.4 uM after 48 hrs in presence of 412.1 uM TMZ by MTT assay. Format: cell-based. As to conditions: ctx tna2, 48 h.
In data set [2] the test system is DBTRG-05MG. The experiment in a line: Induction of cell cycle arrest in human DBTRG-05MG cells assessed as accumulation at G0/G1 phase at 112.4 uM after 48 hrs by propidium iodide staining based flow cytometric analysis (reference value: 47.16 +/- 1.55%). It is filed as functional. A general note: Flow cytometry measures light scatter and fluorescence of single cells or particles in a stream.

In data set [3] the test system is RG2. Briefly: Induction of cell cycle arrest in rat RG2 cells assessed as p21 expression at 112.4 uM after 48 hrs by Western blot analysis (reference value: 1). It is filed as functional. For orientation: Immunoblotting shows a protein as a band on a membrane.
In data set [4] the test system is DBTRG-05MG. The experiment in a line: Synergistic cytotoxicity against human DBTRG-05MG cells assessed as combination index at 112.4 uM after 48 hrs in presence of 412.1 uM TMZ by MTT assay. Format: functional.
The nature of data set [5]: Effect on p38 expression in rat RG2 cells at 112.4uM after 48 hrs by Western blot analysis (reference value: 1). Format: functional.
Data set [6] has as its system RG2. Briefly: Synergistic cytotoxicity against rat RG2 cells assessed as combination index at 134.9 uM after 48 hrs in presence of 412.1 uM TMZ by MTT assay. It is filed as functional.
The subject of data set [7] is RG2. Briefly: Induction of apoptosis in rat RG2 cells assessed as phosphorylated PARP expression at 112.4 uM after 48 hrs by Western blot analysis (reference value: 1). It is filed as functional.
Data set [8] in a line: Synergistic cytotoxicity against rat CTX TNA2 cells assessed as synergistic effect index at 134.9 uM after 48 hrs in presence of 206 uM TMZ by MTT assay. Format: cell-based. The following applies: ctx tna2, 48 h. A general note: Tetrazolium assays rely on reduction of a dye to a coloured formazan, in cell work by metabolically active cells.
Data set [9] relates to DBTRG-05MG. The experiment in a line: Induction of DNA damage in human DBTRG-05MG cells assessed as Chk1 phosphorylation at ser345 residues at 112.4 uM after 48 hrs in presence of TMZ by Western blot analysis (reference value: 1). It is filed as functional.
Data set [10] deals with DBTRG-05MG. Briefly: Inhibition of TMZ-induced drug resistance in human DBTRG-05MG cells assessed as reduction in MGMT protein expression at 112.4 uM after 48 hrs by Immunohistochemistry method. Format: functional, cell-based.
Data set [11] is described as follows: Toxicity in BALB/c mouse xenografted with DBTRG-05MG cells assessed as inflammatory cell infiltration score in liver at 75 mg/kg, sc co-treated with TMZ for 18 days by H and E staining-based bright field microscopic analysis. It is filed as organism-based. As to conditions: in vivo, 432 h, time 18 day.
Data set [12] concerns RG2. The experiment in a line: Induction of cell cycle arrest in rat RG2 cells assessed as accumulation at G0/G1 phase at 112.4 uM after 48 hrs in presence of TMZ by propidium iodide staining based flow cytometric analysis (reference value: 57.81 +/- 1.9%). Format: functional.
Data set [13] relates to DBTRG-05MG. The experiment in a line: Induction of apoptosis in human DBTRG-05MG cells assessed as Bax expression at 112.4 uM after 48 hrs by Western blot analysis (reference value: 1). Format: functional.
Data set [14] has as its system RG2. The experiment in a line: Induction of cell cycle arrest in rat RG2 cells assessed as accumulation at G2/M phase at 112.4 uM after 12 hrs in presence of TMZ by propidium iodide staining based flow cytometric analysis (reference value: 20.04 +/- 0.55%). It is filed as functional.
Data set [15] concerns DBTRG-05MG. Briefly: Synergistic cytotoxicity against human DBTRG-05MG cells assessed as synergistic effect index at 134.9 uM after 48 hrs in presence of 309 uM TMZ by MTT assay. It is filed as functional.
The test system of data set [16] is RG2. The experiment in a line: Inhibition of p38 phosphorylation at Tyr182 residues in rat RG2 cells at 112.4uM after 48 hrs by Western blot analysis (reference value: 1). Format: cell-based.
The test system of data set [17] is RG2. The experiment in a line: Synergistic cytotoxicity against rat RG2 cells assessed as synergistic effect index at 89.9 uM after 48 hrs in presence of 412.1 uM TMZ by MTT assay. It is filed as functional.
The subject of data set [18] is DBTRG-05MG. The experiment in a line: Induction of DNA damage in human DBTRG-05MG cells assessed as H2A.X phosphorylation at ser139 residues at 112.4 uM after 48 hrs by Western blot analysis (reference value: 1). It is filed as functional.
In data set [19] the test system is RG2. The experiment in a line: Induction of apoptosis in rat RG2 cells assessed as increase in chromatin condensation at 112.4 uM after 48 hrs by TUNEL assay. It is filed as functional, cell-based.
In data set [20] the test system is DBTRG-05MG. The experiment in a line: Induction of cell cycle arrest in human DBTRG-05MG cells assessed as CyclinB1 expression at 112.4 uM after 48 hrs in presence of TMZ by Western blot analysis (reference value: 1). It is filed as functional.
Data set [21] is described as follows: Toxicity in BALB/c mouse xenografted with DBTRG-05MG cells assessed as inflammatory cell infiltration score in liver at 5 mg/kg, ip for 5 days by H and E staining-based bright field microscopic analysis. Format: organism-based. As to conditions: in vivo, 120 h, time 5 day.
Data set [22] in a line: Inhibition of TMZ-induced drug resistance in human DBTRG-05MG cells assessed as CD133 expression at 112.4 uM after 48 hrs by Western blot analysis (reference value: 2.3). It is filed as functional.
Data set [23] in a line: Synergistic cytotoxicity against rat CTX TNA2 cells assessed as combination index at 112.4 uM after 48 hrs in presence of 103 uM TMZ by MTT assay. It is filed as cell-based. As to conditions: ctx tna2, 48 h.
Data set [24] has as its system RG2. The experiment in a line: Induction of DNA damage in rat RG2 cells assessed as ATR phosphorylation at ser428 residues at 112.4 uM after 48 hrs in presence of TMZ by Western blot analysis (reference value: 1). Format: functional.
Data set [25] concerns DBTRG-05MG. Briefly: Induction of apoptosis in human DBTRG-05MG cells assessed as Bax expression at 206 uM after 48 hrs by Western blot analysis (reference value: 1). It is filed as functional.
Data set [26] concerns DBTRG-05MG. The experiment in a line: Induction of DNA damage in human DBTRG-05MG cells assessed as Chk2 phosphorylation at Thr68 residues at 206 uM after 48 hrs by Western blot analysis (reference value: 1). It is filed as functional.
The subject of data set [27] is RG2. The experiment in a line: Induction of apoptosis in rat RG2 cells assessed as cleaved caspace-9 expression at 206 uM after 48 hrs by Western blot analysis (reference value: 1). It is filed as functional.
Data set [28] has as its system DBTRG-05MG. The experiment in a line: Induction of cell cycle arrest in human DBTRG-05MG cells assessed as accumulation at G2/M phase at 206 uM after 48 hrs by propidium iodide staining based flow cytometric analysis (reference value: 30.08 +/- 0.1%). Format: functional.
Data set [29] relates to DBTRG-05MG. The experiment in a line: Induction of DNA damage in human DBTRG-05MG cells assessed as ATR phosphorylation at ser428 residues at 206 uM after 48 hrs by Western blot analysis (reference value: 1). Format: functional.
Data set [30] is described as follows: Effect on JNK expression in rat RG2 cells at 206 uM after 48 hrs by Western blot analysis (reference value: 1). Format: functional.
Data set [31] relates to RG2. The experiment in a line: Induction of cell cycle arrest in rat RG2 cells assessed as accumulation at G2/M phase at 206 uM after 24 hrs by propidium iodide staining based flow cytometric analysis (reference value: 20.04 +/- 0.55%). It is filed as functional.
Data set [32] has as its system DBTRG-05MG. The experiment in a line: Induction of cell cycle arrest in human DBTRG-05MG cells assessed as accumulation at S phase at 206 uM after 24 hrs by propidium iodide staining based flow cytometric analysis (reference value: 22.76 +/- 1.56%). Format: functional.
Data set [33] concerns RG2. The experiment in a line: Induction of apoptosis in rat RG2 cells assessed as Bax expression at 206 uM after 48 hrs by Western blot analysis (reference value: 1). It is filed as functional.

Each structure is given as a SMILES string. Calls of active or inactive are those of the source. The rule behind the calls is not given here.

Regarding `C[C@@H]1CC[C@H]2C(C)(C)[C@H]3C[C@@]12CC[C@@]3(C)O` [CEDROL], the Activity_index in data set [1] is reported as 0.58; in data set [8], 0.43; with DBTRG-05MG [15] it was 0.89; in the data set with RG2 [17], 0.66. Moreover, the Activity in the data set on DBTRG-05MG [2] is 53.13%; in data set [11] it was 1.23; in the data set on RG2 [12], 44%; in the data set with RG2 [14], 18.79%; in data set [21], 2.38. Further, the “fold change (FC)” value in the data set on RG2 [3] is 1.6; in data set [5] it was 0.8; in the data set on RG2 [7], 0.6; in the data set with DBTRG-05MG [9], 1.4; in the data set on DBTRG-05MG [13], 1.3; with RG2 [16], 1.3. Further, the “fold change (FC)” value in the data set on DBTRG-05MG [18] turned out to be 0.9; in the data set on DBTRG-05MG [20] it was 0.7; in [22], 1.5; in the data set with RG2 [24] it was 1.1. The values for the CI (in the data set on DBTRG-05MG [4]; in the data set with RG2 [6]; in [23]) were 0.62, 0.93 and 1.24, respectively. Also, in the data set with DBTRG-05MG [10], the inhibition result is “Active”. The outcome in the data set on RG2 [19] was Active.

On to `Cn1nnc2c(C(N)=O)ncn2c1=O` [TEMOZOLOMIDE], for which the “fold change (FC)” value in the data set with DBTRG-05MG [25] is on record as 1.4; in the data set with DBTRG-05MG [26], 2; in the data set with RG2 [27], 1.7; in the data set with DBTRG-05MG [29], 1.5; in data set [30], 1; in the data set on RG2 [33], 1.1. Moreover, the Activity is 53.64% in the data set on DBTRG-05MG [28], 31.81% in the data set on RG2 [31] and 25.43% in the data set with DBTRG-05MG [32].
